Experimental findings from ChEMBL document CHEMBL3508693 (2016) are described below.

Data set [1] can be described thus: % aliskiren hemifumarate recovered as M1 in urine following single oral dose of 300 mg [14C]SPP100 studied in healthy men. In kind it is ADME, organism-based. The note with it: human, in vivo.
A short description of data set [2]: % aliskiren hemifumarate recovered as M1 in faeces following single oral dose of 300 mg [14C]SPP100 studied in healthy men. Type of data set: ADME, organism-based, Feces. The note with it: human, in vivo, at 300 mg.
Data set [3] in a line: % aliskiren hemifumarate recovered as M1 in urine and faeces following single oral dose of 300 mg [14C]SPP100 studied in healthy men. In kind it is ADME, organism-based, Urine/Feces. The settings on record: human, in vivo, at 300 mg.
Data set [4] can be described thus: % aliskiren recovered as M1 in bile following single intravenous administration of 10 mg.Kg-1 [14C] aliskiren hemifumarate in male rat. Type of data set: ADME, organism-based, HAN:WIST(SPF). The settings on record: in vivo.
Data set [5] in a line: % aliskiren recovered as M1 in hydrolysed following single intravenous administration of 10 mg.Kg-1 [14C] aliskiren hemifumarate in male rat. Type of data set: ADME, organism-based, HAN:WIST(SPF), Bile. The note with it: in vivo.
Data set [6] in a line: % aliskiren recovered as M1 in urine following single intravenous administration of 10 mg.Kg-1 [14C] aliskiren hemifumarate in male rat. The settings on record: in vivo. Type of data set: ADME, organism-based, HAN:WIST(SPF).
A short description of data set [7]: % aliskiren recovered as M1 of receiver rat following duodenal infusion of radioactivity through bile from donor rat treated with single intravenous administration of 10 mg.Kg-1 [14C] aliskiren hemifumarate. The settings on record: in vivo. In kind it is ADME, organism-based, HAN:WIST(SPF).
Data set [8] is described as follows: % of radioactivity recovered as M1 in plasma following oral administration of [14C] aliskiren hemifumarate at 100 mg.Kg-1 level in rat. The note with it: in vivo. In kind it is ADME, organism-based, Albino HAN:WIST.
A short description of data set [9]: % of radioactivity recovered as M1 in urine following oral administration of [14C] aliskiren hemifumarate at 100 mg.Kg-1 level in rat. In kind it is ADME, organism-based, Albino HAN:WIST. The note with it: in vivo.
Data set [10] in a line: % of radioactivity recovered as M1 in faeces following oral administration of [14C] aliskiren hemifumarate at 100 mg.Kg-1 level in rat. Type of data set: ADME, organism-based, Albino HAN:WIST, Feces. The settings on record: in vivo.
A short description of data set [11]: % of radioactivity recovered as M1 in plasma following intravenous administration of [14C] aliskiren hemifumarate at 10 mg.Kg-1 level in rat. The settings on record: in vivo. Type of data set: ADME, organism-based, Albino HAN:WIST.
Data set [12] is described as follows: % of radioactivity recovered as M1 in urine following intravenous administration of [14C] aliskiren hemifumarate at 10 mg.Kg-1 level in rat. The note with it: in vivo. Type of data set: ADME, organism-based, Albino HAN:WIST.
Data set [13] can be described thus: % of radioactivity recovered as M1 in faeces following intravenous administration of [14C] aliskiren hemifumarate at 10 mg.Kg-1 level in rat. In kind it is ADME, organism-based, Albino HAN:WIST, Feces. The settings on record: in vivo.

Bounds are passed on as bounds.

Turning to `COCCCOc1cc(C[C@@H](C[C@H](N)[C@@H](O)C[C@H](C(=O)NCC(C)(C)C(N)=O)C(C)C)C(C)C)ccc1O`, the Compound recovery entry is listed as “OUTCOME = Not detected” in data set [1]; 0.1% in [2]; 0.1% in data set [3]; 1.3% in data set [4]; 2.8% in data set [5]; 0.8% in [6]. For the same compound, the Compound recovery result in data set [7] is “OUTCOME = Not detected”; in [8], “OUTCOME = Not detected or not investigated”; in data set [9], “<= 2%”; in [10], “<= 2%”; in data set [11], “OUTCOME = Not detected or not investigated”; in [12], “<= 2%”. For the same compound, the Compound recovery in data set [13] is over 2%.
